Data reported in patent US20240262822A1, “WDR5 INHIBITORS AND MODULATORS” (Vanderbilt University, priority 2021, published 2024).

Assays:
WDR5 = target: T1, WDR5 (Homo sapiens, UniProt P61964); assay: Time Resolved-Fluorescence Energy Transfer (TR-FRET) competition assay, displacement of 10mer-Thr-FAM probe from His-tagged WDR5; assay type: binding; details: WDR5-His tag 2 nM, 10mer-Thr-FAM 150 nM, 60 minutes at room temperature; read-out: Ki for Exemplified Compounds for Inhibition of WDR5 by TR-FRET assay
T1 construct: WDR5-His Tag (A23, residues 24-334) is expressed and purified in our lab; made in house
Method in brief: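 Competitive TR-FRET using 2 nM His-tagged WDR5 (residues 24-334), 1 nM Tb-anti-His antibody and 150 nM 10mer-Thr-FAM probe; compounds in a 10-point, 5-fold series from 5 μM, ≤1% DMSO. Incubated 60 min at room temperature in PBS with 300 mM NaCl, 0.5 mM TCEP, 0.1% CHAPS, pH 7.2; 520/495 nm emission gave IC50, converted to Ki by the Wang equation.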

[1] = test system: MV4:11 human cancer cell lines; assay: Cellular viability / anti-proliferative activity, CellTiter-Glo, 5 day protocol; assay type: cell-based; details: Homo sapiens, MV4-11, 120 h, MV4:11 cells, 5 day incubation, read-out: GI50 for representative compounds on cellular proliferation of MV4:11 human cancer cell lines
Method in brief: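 MV-4-11 cells in IMDM/10% FBS, 200 cells per well, exposed to 22-point 2-fold dilutions from 30 μM top (0.3% DMSO) for 5 days. Viability by CellTiter-Glo luminescence; GI50 from sigmoidal dose-response fit, mean of at least two replicates.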

Row | SMILES | Ki (WDR5) [nM] | GI50 [1] [nM]
1 | COc1cc2nc(C)nc(N3CCc4c(cc(Cn5ccnc5)cc4-c4cc(C(F)(F)F)nn4C)C3=O)c2cc1OC [Example 61, 7-((1H-Imidazol-1-yl)methyl)-2-(6,7-dimethoxy-2-methylquinazolin-4-yl)-5-(1-methyl-3-(trifluoromethyl)-1H-pyrazol-5-yl)-3,4-dihydroisoquinolin-1(2H)-one] | 0.031 | 128
2 | CCN(C)c1nc(N2CCc3c(cc(Cn4ccnc4)cc3-c3cn(C)nc3C(F)(F)F)C2=O)c2cc(OC)c(OC)cc2n1 [Example 62, 7-((1H-Imidazol-1-yl)methyl)-2-(2-(ethyl(methyl)amino)-6,7-dimethoxyquinazolin-4-yl)-5-(1-methyl-3-(trifluoromethyl)-1H-pyrazol-4-yl)-3,4-dihydroisoquinolin-1(2H)-one] | < 0.02 | 29
3 | CCc1nc(N2CCc3c(cc(Cn4ccnc4)cc3-c3cn(C)nc3C(F)(F)F)C2=O)c2cc(OC)c(OC)cc2n1 [Example 63, 7-((1H-Imidazol-1-yl)methyl)-2-(2-ethyl-6,7-dimethoxyquinazolin-4-yl)-5-(1-methyl-3-(trifluoromethyl)-1H-pyrazol-4-yl)-3,4-dihydroisoquinolin-1(2H)-one] | < 0.02 | < 20
4 | COc1cc2nc(C3CC3)nc(N3CCc4c(cc(Cn5ccnc5)cc4-c4cn(C)nc4C(F)(F)F)C3=O)c2cc1OC [Example 64, 7-((1H-Imidazol-1-yl)methyl)-2-(2-cyclopropyl-6,7-dimethoxyquinazolin-4-yl)-5-(1-methyl-3-(trifluoromethyl)-1H-pyrazol-4-yl)-3,4-dihydroisoquinolin-1(2H)-one] | < 0.02 | < 20
5 | COc1cc2nc(C)nc(N3CCc4c(cc(Cn5ccnc5)cc4-c4cn(C)nc4C)C3=O)c2cc1OC [Example 65, 7-((1H-Imidazol-1-yl)methyl)-2-(6,7-dimethoxy-2-methylquinazolin-4-yl)-5-(1,3-dimethyl-1H-pyrazol-4-yl)-3,4-dihydroisoquinolin-1(2H)-one] | 0.023 | 43
6 | COc1cc2nc(C)nc(N3CCc4c(cc(Cn5ccnc5)cc4-c4ccc(F)cc4C)C3=O)c2cc1OC [Example 66, 7-((1H-Imidazol-1-yl)methyl)-2-(6,7-dimethoxy-2-methylquinazolin-4-yl)-5-(4-fluoro-2-methylphenyl)-3,4-dihydroisoquinolin-1(2H)-one] | 0.02 | 38
7 | COc1cc2nc(C3CCOCC3)nc(N3CCc4c(cc(Cn5ccnc5)cc4-c4cn(C)nc4C(F)(F)F)C3=O)c2cc1OC [Example 67, 7-((1H-Imidazol-1-yl)methyl)-2-(6,7-dimethoxy-2-(tetrahydro-2H-pyran-4-yl)quinazolin-4-yl)-5-(1-methyl-3-(trifluoromethyl)-1H-pyrazol-4-yl)-3,4-dihydroisoquinolin-1(2H)-one] | 0.025 | < 20
